From ChEMBL document CHEMBL2057163, “Pyridofuran substituted pyrimidine derivatives as HCV replication (replicase) inhibitors” (Bioorg Med Chem Lett, 2012)

What was measured:
Hepatitis C virus = assay: Antiviral activity against Hepatitis C virus 1b con1 infected in human hepatoma cells assessed as decrease in replicon RNA level after 3 days by RT-PCR analysis; type: functional, organism-based, Hepacivirus hominis; details: Con1, 72 h
[1] = Cytotoxicity against human hepatoma cells after 3 days by MTS assay; type: cell-based
[2] = AUC (0 to 6 hrs) in rat at 10 mg/kg, po; type: ADME, organism-based; design: time < 6 hr, dose 10 mg/kg, route oral; details: plasma
Liver = assay: Drug uptake in rat liver assessed per gram of tissue at 10 mg/kg, po measured at 6 hrs; type: ADME, organism-based; design: dose 10 mg/kg, route oral; details: in vivo
[3] = Cytotoxicity against human hepatoma cells assessed as decrease in GAPDH RNA level after 3 days by RT-PCR analysis; type: cell-based

SMILES	EC50 (Hepatitis C virus) [µM]	AUC(0-t) at 6 h [2] [µM·h]	liver concentration (Liver) [ng/g]	CC50 at 72 h [1] [µM]	CC50 at 72 h [3] [µM]
Nc1nc(Cl)c(-c2cc3cccnc3o2)c(N[C@@H]2C[C@H](CO)[C@@H](O)[C@H]2O)n1	0.4			19	
CCCCCNc1nc(C)c(-c2cc3cc(CC)ncc3o2)c(N[C@@H]2C[C@H](CO)[C@@H](O)[C@H]2O)n1.Cl		0.48	31		
Cc1cc2cc(-c3c(Cl)nc(N)nc3N[C@@H]3C[C@H](CO)[C@@H](O)[C@H]3O)oc2cn1	0.03			25	9
CCc1cc2cc(-c3c(C)nc(NCC(F)(F)F)nc3N[C@@H]3C[C@H](CO)[C@@H](O)[C@H]3O)oc2cn1	0.02			15	13
CCc1cc2cc(-c3c(C)nc(NCc4cc(OC)cc(OC)c4)nc3N[C@@H]3C[C@H](CO)[C@@H](O)[C@H]3O)oc2cn1.Cl		0.1	20		
CCc1nccc2cc(-c3c(Cl)nc(N)nc3N[C@@H]3C[C@H](CO)[C@@H](O)[C@H]3O)oc12.Cl		0.05			
Nc1nc(Cl)c(-c2cc3ccncc3o2)c(N[C@@H]2C[C@H](CO)[C@@H](O)[C@H]2O)n1	0.07			25	25
CCc1cc2cc(-c3c(C)nc(NCCCC(F)(F)F)nc3N[C@@H]3C[C@H](CO)[C@@H](O)[C@H]3O)oc2cn1.Cl		0.9	1000		
CCc1cc2cc(-c3c(C)nc(NCCCC(F)(F)F)nc3N[C@@H]3C[C@H](CO)[C@@H](O)[C@H]3O)oc2cn1	0.02			> 25	17
CCOCCNc1nc(C)c(-c2cc3cc(CC)ncc3o2)c(N[C@@H]2C[C@H](CO)[C@@H](O)[C@H]2O)n1	0.004			16	4
CCc1cc2cc(-c3c(C)nc(NCC(C)C)nc3N[C@@H]3C[C@H](CO)[C@@H](O)[C@H]3O)oc2cn1.Cl		4.5	251		
CCc1cc2cc(-c3c(Cl)nc(N)nc3N[C@@H]3C[C@H](CO)[C@@H](O)[C@H]3O)oc2c(C)n1	0.01			16	13
Cc1cncc2oc(-c3c(Cl)nc(N)nc3N[C@@H]3C[C@H](CO)[C@@H](O)[C@H]3O)cc12	1.4			> 25	25
CCc1cc2cc(-c3c(C)nc(NC)nc3N[C@@H]3C[C@H](CO)[C@@H](O)[C@H]3O)oc2cn1.Cl		0.9	936		
CCc1cc2cc(-c3c(C)nc(NCC(C)C)nc3N[C@@H]3C[C@H](CO)[C@@H](O)[C@H]3O)oc2cn1	0.08			12	7
CCc1cc2cc(-c3c(C)nc(NCc4cc(OC)cc(OC)c4)nc3N[C@@H]3C[C@H](CO)[C@@H](O)[C@H]3O)oc2cn1	0.003			20	> 25

SMILES	EC50 (Hepatitis C virus) [µM]	AUC(0-t) at 6 h [2] [µM·h]	liver concentration (Liver) [ng/g]	CC50 at 72 h [1] [µM]	CC50 at 72 h [3] [µM]
Cc1cc2cc(-c3c(Cl)nc(N)nc3N[C@@H]3C[C@H](CO)[C@@H](O)[C@H]3O)oc2c(C)n1.Cl	0.01	0.01		22	15
CCc1cc2cc(-c3c(C)nc(NC)nc3N[C@@H]3C[C@H](CO)[C@@H](O)[C@H]3O)oc2cn1	0.03			> 25	> 25
CCc1cc2cc(-c3c(Cl)nc(N)nc3N[C@@H]3C[C@H](CO)[C@@H](O)[C@H]3O)oc2c(CC)n1.Cl		0.17			
CCc1cc2cc(-c3c(Cl)nc(N)nc3N[C@@H]3C[C@H](CO)[C@@H](O)[C@H]3O)oc2cn1.Cl		0.07			
CCc1cc2cc(-c3c(Cl)nc(N)nc3N[C@@H]3C[C@H](CO)[C@@H](O)[C@H]3O)oc2c(CC)n1	0.02			16	25
CCc1nccc2cc(-c3c(Cl)nc(N)nc3N[C@@H]3C[C@H](CO)[C@@H](O)[C@H]3O)oc12	0.02			24	19
COc1cc2cc(-c3c(Cl)nc(N)nc3N[C@@H]3C[C@H](CO)[C@@H](O)[C@H]3O)oc2c(C)n1	0.01			25	
CCc1cc2cc(-c3c(Cl)nc(N)nc3N[C@@H]3C[C@H](CO)[C@@H](O)[C@H]3O)oc2c(C)n1.Cl		0.01			
CCc1nc(C)cc2cc(-c3c(Cl)nc(N)nc3N[C@@H]3C[C@H](CO)[C@@H](O)[C@H]3O)oc12	0.03			20	9
CCc1cc2cc(-c3c(Cl)nc(N)nc3N[C@@H]3C[C@H](CO)[C@@H](O)[C@H]3O)oc2cn1	0.01			22	12
Nc1nc(Cl)c(-c2cc3ncccc3o2)c(N[C@@H]2C[C@H](CO)[C@@H](O)[C@H]2O)n1	> 25			21	
Cc1nccc2cc(-c3c(Cl)nc(N)nc3N[C@@H]3C[C@H](CO)[C@@H](O)[C@H]3O)oc12	0.12			> 25	> 25
CCOCCNc1nc(C)c(-c2cc3cc(CC)ncc3o2)c(N[C@@H]2C[C@H](CO)[C@@H](O)[C@H]2O)n1.Cl		1.2	492		
Nc1nc(Cl)c(-c2cc3cnccc3o2)c(N[C@@H]2C[C@H](CO)[C@@H](O)[C@H]2O)n1	1.7			25	
CCCCCNc1nc(C)c(-c2cc3cc(CC)ncc3o2)c(N[C@@H]2C[C@H](CO)[C@@H](O)[C@H]2O)n1	0.03			3	3

Continued, in another order:

EC50 (Hepatitis C virus) [µM]	AUC(0-t) at 6 h [2] [µM·h]	liver concentration (Liver) [ng/g]	SMILES	CC50 at 72 h [1] [µM]	CC50 at 72 h [3] [µM]
	1.1	285	CCOc1cc2cc(-c3c(C)nc(NCCOC)nc3N[C@@H]3C[C@H](CO)[C@@H](O)[C@H]3O)oc2c(C)n1.Cl		
0.03			CCc1cc2cc(-c3c(C)nc(NCC(C)(C)C)nc3N[C@@H]3C[C@H](CO)[C@@H](O)[C@H]3O)oc2cn1	11	10
0.04			COc1cc2cc(-c3c(C)nc(NCC(C)(C)C)nc3N[C@@H]3C[C@H](CO)[C@@H](O)[C@H]3O)oc2c(C)n1	21	17
0.05			CCOc1cc2cc(-c3c(C)nc(NC)nc3N[C@@H]3C[C@H](CO)[C@@H](O)[C@H]3O)oc2c(C)n1		> 25
	0.5	178	COc1cc(CNc2nc(C)c(-c3cc4cc(OC)nc(C)c4o3)c(N[C@@H]3C[C@H](CO)[C@@H](O)[C@H]3O)n2)cc(OC)c1.Cl		
	8.9	3020	CCOc1cc2cc(-c3c(C)nc(NCC(F)(F)F)nc3N[C@@H]3C[C@H](CO)[C@@H](O)[C@H]3O)oc2c(C)n1.Cl		
	0.35	238	CCOc1cc2cc(-c3c(C)nc(NCc4cc(OC)cc(OC)c4)nc3N[C@@H]3C[C@H](CO)[C@@H](O)[C@H]3O)oc2c(C)n1.Cl		
	4	315	CCc1cc2cc(-c3c(C)nc(NCC(C)(C)C)nc3N[C@@H]3C[C@H](CO)[C@@H](O)[C@H]3O)oc2cn1.Cl		
	1.4	238	CCOc1cc2cc(-c3c(C)nc(NC)nc3N[C@@H]3C[C@H](CO)[C@@H](O)[C@H]3O)oc2c(C)n1.Cl		
	4.4	1180	COc1cc2cc(-c3c(C)nc(NCC(C)(C)C)nc3N[C@@H]3C[C@H](CO)[C@@H](O)[C@H]3O)oc2c(C)n1.Cl		
	18.5	8980	CCOc1cc2cc(-c3c(C)nc(Nc4ccccc4)nc3N[C@@H]3C[C@H](CO)[C@@H](O)[C@H]3O)oc2c(C)n1.Cl		
	6.5	274	CNc1nc(Cl)c(-c2cc3cc(OC)nc(C)c3o2)c(N[C@@H]2C[C@H](CO)[C@@H](O)[C@H]2O)n1.Cl		
	0.1		COc1cc2cc(-c3c(Cl)nc(N)nc3N[C@@H]3C[C@H](CO)[C@@H](O)[C@H]3O)oc2c(C)n1.Cl		
0.02			CCOc1cc2cc(-c3c(C)nc(NCC(F)(F)F)nc3N[C@@H]3C[C@H](CO)[C@@H](O)[C@H]3O)oc2c(C)n1	> 25	> 25
0.15			CCOc1cc2cc(-c3c(C)nc(Nc4ccccc4)nc3N[C@@H]3C[C@H](CO)[C@@H](O)[C@H]3O)oc2c(C)n1	18	24
0.01			COc1cc(CNc2nc(C)c(-c3cc4cc(OC)nc(C)c4o3)c(N[C@@H]3C[C@H](CO)[C@@H](O)[C@H]3O)n2)cc(OC)c1	25	> 25
0.05			CCOc1cc2cc(-c3c(C)nc(NCC(C)(C)C)nc3N[C@@H]3C[C@H](CO)[C@@H](O)[C@H]3O)oc2c(C)n1	23	12
0.002			CCOc1cc2cc(-c3c(C)nc(NCc4cc(OC)cc(OC)c4)nc3N[C@@H]3C[C@H](CO)[C@@H](O)[C@H]3O)oc2c(C)n1	> 25	> 25
0.02			CCOc1cc2cc(-c3c(C)nc(NCC4CC4)nc3N[C@@H]3C[C@H](CO)[C@@H](O)[C@H]3O)oc2c(C)n1	25	25
	2.7	310	CNc1nc(C)c(-c2cc3cc(OC)nc(C)c3o2)c(N[C@@H]2C[C@H](CO)[C@@H](O)[C@H]2O)n1.Cl		
	6.8	2330	CCOc1cc2cc(-c3c(C)nc(NCC(C)(C)C)nc3N[C@@H]3C[C@H](CO)[C@@H](O)[C@H]3O)oc2c(C)n1.Cl		
0.06			CNc1nc(C)c(-c2cc3cc(OC)nc(C)c3o2)c(N[C@@H]2C[C@H](CO)[C@@H](O)[C@H]2O)n1	25	> 25
0.009			CCOc1cc2cc(-c3c(C)nc(NCCOC)nc3N[C@@H]3C[C@H](CO)[C@@H](O)[C@H]3O)oc2c(C)n1	> 25	> 25
